Laboratory results reported in US10261090B2, “Glutathione-detecting fluorescent probe” (THE UNIVERSITY OF TOKYO, priority 2014, dated 2019).
Where two headings read alike, the source gives them in different places.

Tests used:
[1] = Fluorescence assay for glutathione: Kd from absorption/fluorescence change on glutathione addition; assay type: binding
Protocol: (§1) Glutathione was reacted with the fluorescent probe 2Me SiR600 (compound 1) synthesized in Example 1, and fluorescence assay was conducted. A Shimadzu UV-2450 (Shimadzu Corporation) and a Hitachi F-7000 (Hitachi, Ltd.) were used in ultraviolet-visible spectroscopy and fluorescence spectroscopy. A fluorescent probe was diluted to a final concentration of 1 μM in 0.2 M sodium phosphate buffer (pH 7.4), containing 0.1-1% DMSO. The absorption spectrum and fluorescence spectrum were measured when various concentration of glutathione was added in the range of 1 μM-100 mM. The excitation wavelength was 590 nm.

[2] = Ultraviolet-visible and fluorescence spectroscopy of the probes; assay type: physicochemical; conditions: for Quantum yield: 0.2 M sodium phosphate buffer pH 7.4
Protocol: as §1

[3] = test system: intracellular glutathione in cultured cancer cells; test: Cell imaging in cultured cancer cells by confocal microscope; assay type: cell-based; conditions: for change in fluorescence intensity ratio in cells: NEM addition, FIGS. 8 and 9
Protocol: Next, cell imaging in cultured cancer cells was conducted using compound 1 (2Me SiR600) as a fluorescent probe. Measurement was conducted using a confocal microscope.
Fluorescence imaging in cultured cancer cells was conducted in the same way as in Example 4 using compound 8 (2Me SiR600-TMR) as the fluorescent probe (FIG. 8).

[4] = Table 1, dissociation constant for glutathione, calculated from changes in the fluorescence spectrum, pH 7.4, read-out: Kd
[5] = Table 1, 1 μM probe, 0.2 M sodium phosphate buffer pH 7.4, 0.1-1% DMSO
[6] = Table 2, dissociation constant for glutathione, same conditions as Example 2, read-out: Kd
[7] = Table 2, same conditions as Example 2

Q: With Cc1ccccc1C1=C2C=CC(=N)C=C2[Si](C)(C)c2cc(N)ccc21 [Compound 1, 2Me SiR600] as the molecule, how does the Kd [1, 4] read?
A: The Kd was 1100 µM.

Q: And the Kd ([1]; from values at absorption peak wavelength (593 nm) against glutathione concentration, read-out: dissociation constant Kd)?
A: Its Kd is 1000 µM.

Q: And the Kd ([1]; from values at fluorescence peak wavelength (614 nm) against glutathione concentration, excitation 590 nm, read-out: dissociation constant Kd)?
A: Its Kd is 1100 µM.

Q: What about the “Absorption peak [nm]” value [2, 5] of the same molecule?
A: The value was 593 nm.

Q: What about the “Fluorescence peak [nm]” value [2, 5] of the same molecule?
A: The value was 613 nm.

Q: And the Quantum yield ([2]; Table 1)?
A: The Quantum yield was 0.38.

Q: And the “change in fluorescence intensity in cells” value ([3]; glutathione depletion due to N-ethylmaleimide (NEM) addition, FIG. 4)?
A: Its value is “an increase in fluorescence intensity was found”.

Q: With CN(C)c1ccc2c(c1)[Si](C)(C)C1=CC(=[N+](C)C)C=CC1=C2c1ccccc1 [Compound 2, Ph SiR650] as the molecule, how does the Kd [1, 4] read?
A: Its Kd is 900 µM.

Q: And the “Absorption peak [nm]” value [2, 5]?
A: The value was 645 nm.

Q: What about the “Fluorescence peak [nm]” value [2, 5] of the same molecule?
A: The value was 668 nm.

Q: And the Quantum yield ([2]; Table 1)?
A: Its Quantum yield is 0.14.

Q: For COc1ccccc1C1=C2C=CC(=[N+](C)C)C=C2[Si](C)(C)c2cc(N(C)C)ccc21 [Compound 3, 2OMe SiR650], which Kd [1, 4] is on record?
A: Its Kd is 41000 µM.

Q: And the “Absorption peak [nm]” value [2, 5]?
A: Its value is 649 nm.

Q: And the “Fluorescence peak [nm]” value [2, 5]?
A: Its value is 672 nm.

Q: And the Quantum yield ([2]; Table 1)?
A: The Quantum yield was 0.37.

Q: With CN(C)c1ccc2c(c1)[Si](C)(C)C1=CC(=[N+](C)C)C=CC1=C2c1ccccc1O [Compound 4, 2OH SiR650] as the molecule, how does the Kd [1, 4] read?
A: Its Kd is 43000 µM.

Q: What about the “Absorption peak [nm]” value [2, 5] of the same molecule?
A: Its value is 648 nm.

Q: And the “Fluorescence peak [nm]” value [2, 5]?
A: Its value is 672 nm.

Q: What about the Quantum yield ([2]; Table 1) of the same molecule?
A: Its Quantum yield is 0.31.

Q: Which Kd [1, 4] does the source give for CN(C)c1ccc2c(c1)[Si](C)(C)C1=CC(=[N+](C)C)C=CC1=C2c1ccccc1C#N [Compound 5, 2CN SiR650] here?
A: The Kd was 1200 µM.

Q: What about the “Absorption peak [nm]” value [2, 5] of the same molecule?
A: Its value is 658 nm.

Q: And the “Fluorescence peak [nm]” value [2, 5]?
A: The value was 683 nm.

Q: What about the Quantum yield ([2]; Table 1) of the same molecule?
A: Its Quantum yield is 0.25.

Q: Which Kd [1, 4] does the source give for COc1ccccc1C1=c2cc3c(cc2[Si](C)(C)c2cc4c(cc21)OCCN4C)=[N+](C)CCO3 [Compound 6, 2OMe OxaSiR diMe] here?
A: Its Kd is 700 µM.

Q: What about the “Absorption peak [nm]” value [2, 5] of the same molecule?
A: Its value is 699 nm.

Q: What about the “Fluorescence peak [nm]” value [2, 5] of the same molecule?
A: The value was 740 nm.

Q: What about the Quantum yield ([2]; Table 1) of the same molecule?
A: The Quantum yield was 0.08.

Q: For CN1CCOc2cc3c(cc21)[Si](C)(C)c1cc2c(cc1=C3c1ccccc1O)OCC[N+]=2C [Compound 7, 2OH OxaSiR diMe], which Kd [1, 4] is on record?
A: Its Kd is 900 µM.

Q: What about the “Absorption peak [nm]” value [2, 5] of the same molecule?
A: The value was 699 nm.

Q: And the “Fluorescence peak [nm]” value [2, 5]?
A: The value was 739 nm.

Q: And the Quantum yield ([2]; Table 1)?
A: Its Quantum yield is 0.07.

Q: Which “change in fluorescence intensity ratio in cells” value [3] does the source give for Cc1cc(C(=O)NC2CCC(NC(=O)c3ccc(-c4c5ccc(=[N+](C)C)cc-5oc5cc(N(C)C)ccc45)c(C(=O)[O-])c3)CC2)ccc1C1=C2C=CC(=N)C=C2[Si](C)(C)c2cc(N)ccc21 (stereo not drawn) [Compound 8, 2Me SiR600-TMR] here?
A: Its value is “change in fluorescence intensity ratio observed”.

Q: For COC(=O)c1cc(C(=O)NC2CCC(NC(=O)c3ccc(C4=C5C=CC(=N)C=C5[Si](C)(C)c5cc(N)ccc54)c(C)c3)CC2)ccc1-c1c2ccc(=[N+](C)C)cc-2oc2cc(N(C)C)ccc12 (stereo not drawn) [Compound 9, 2Me SiR600-TMR(Me)], which “change in fluorescence intensity ratio in cells” value [3] is on record?
A: The value was “change in fluorescence intensity ratio due to NEM addition was also observed”.

Q: What does the source list for CCc1ccccc1C1=C2C=CC(=N)C=C2[Si](C)(C)c2cc(N)ccc21.O=C(O)C(F)(F)F [Compound 11]?
A: Kd [1, 6]: 2300 µM; Absorption peak [nm] [2, 7]: 592 nm; Fluorescence peak [nm] [2, 7]: 614 nm; Fluorescence quantum yield [2, 7]: 0.44

Q: Which Kd [1, 6] does the source give for CN=C1C=CC2=C(c3ccccc3OC)c3ccc(NC)cc3[Si](C)(C)C2=C1.O=C(O)C(F)(F)F [Compound 16] here?
A: Its Kd is 16000 µM.

Q: What about the “Absorption peak [nm]” value [2, 7] of the same molecule?
A: Its value is 620 nm.

Q: And the “Fluorescence peak [nm]” value [2, 7]?
A: The value was 643 nm.

Q: What about the Fluorescence quantum yield [2, 7] of the same molecule?
A: The Fluorescence quantum yield was 0.34.

Q: For CN=C1C=CC2=C(c3ccccc3O)c3ccc(NC)cc3[Si](C)(C)C2=C1.O=C(O)C(F)(F)F [Compound 17], which Kd [1, 6] is on record?
A: Its Kd is 21000 µM.

Q: What about the “Absorption peak [nm]” value [2, 7] of the same molecule?
A: Its value is 620 nm.

Q: And the “Fluorescence peak [nm]” value [2, 7]?
A: The value was 643 nm.

Q: And the Fluorescence quantum yield [2, 7]?
A: The Fluorescence quantum yield was 0.22.

Q: Which Kd [1, 6] does the source give for CN(C)c1ccc2c(c1)[Si](C)(C)C1=CC(=[N+](C)C)C=CC1=C2c1ccccc1F [Compound 18] here?
A: The Kd was 1300 µM.

Q: And the “Absorption peak [nm]” value [2, 7]?
A: The value was 655 nm.

Q: And the “Fluorescence peak [nm]” value [2, 7]?
A: Its value is 677 nm.

Q: And the Fluorescence quantum yield [2, 7]?
A: Its Fluorescence quantum yield is 0.19.

Q: For CN(C)c1ccc2c(c1)[Si](C)(C)C1=CC(=[N+](C)C)C=CC1=C2c1cccc(C(F)(F)F)c1 [Compound 21], which Kd [1, 6] is on record?
A: Its Kd is 600 µM.

Q: And the “Absorption peak [nm]” value [2, 7]?
A: Its value is 650 nm.

Q: What about the “Fluorescence peak [nm]” value [2, 7] of the same molecule?
A: Its value is 673 nm.

Q: And the Fluorescence quantum yield [2, 7]?
A: The Fluorescence quantum yield was 0.20.

Q: For CN(C)c1ccc2c(c1)[Si](C)(C)C1=CC(=[N+](C)C)C=CC1=C2c1ccc(C(F)(F)F)cc1 [Compound 22], which Kd [1, 6] is on record?
A: Its Kd is 500 µM.

Q: And the “Absorption peak [nm]” value [2, 7]?
A: Its value is 650 nm.

Q: What about the “Fluorescence peak [nm]” value [2, 7] of the same molecule?
A: Its value is 673 nm.

Q: And the Fluorescence quantum yield [2, 7]?
A: Its Fluorescence quantum yield is 0.16.

Q: For CN(C)c1ccc2c(c1)[Si](C)(C)C1=CC(=[N+](C)C)C=CC1=C2c1ccccc1Cl [Compound 23], which Kd [1, 6] is on record?
A: The Kd was 27000 µM.

Q: What about the “Absorption peak [nm]” value [2, 7] of the same molecule?
A: The value was 655 nm.

Q: What about the “Fluorescence peak [nm]” value [2, 7] of the same molecule?
A: Its value is 676 nm.

Q: What about the Fluorescence quantum yield [2, 7] of the same molecule?
A: Its Fluorescence quantum yield is 0.30.

Q: What does the source list for Cc1ccccc1C1=C2C=CC(=[N+](C)C)C=C2[Si](C)(C)c2cc(N)ccc21 [Compound 26]?
A: Kd [1, 6]: 15000 µM; Absorption peak [nm] [2, 7]: 620 nm; Fluorescence peak [nm] [2, 7]: 643 nm; Fluorescence quantum yield [2, 7]: 0.14

Q: Which results are given for Cc1ccccc1C1=c2cc3c(cc2[Si](C)(C)c2cc4c(cc21)OCCN4C)=[N+](C)CCO3 [Compound 27]?
A: Kd [1, 6]: 2100 µM; Absorption peak [nm] [2, 7]: 695 nm; Fluorescence peak [nm] [2, 7]: 738 nm; Fluorescence quantum yield [2, 7]: 0.06
